Consider 3 compounds from US20240132480A1, “INHIBITORS OF MYCOBACTERIUM TUBERCULOSIS LIPOAMIDE DEHYDROGENASE” (Cornell University, priority 2021, published 2024).

SMILES strings stand for the structures.

One series addresses Mtb Lpd (Mycobacterium tuberculosis (strain ATCC 25618 / H37Rv), UniProt P9WHH9). It counts as biochemical. The following applies: read-out: LPD IC50.
Series [1] is described as follows: Microsomal clearance (hLM). The following applies: human liver microsomes. On the technique in general: Microsomes from liver hold many membrane-bound enzymes, among them those of drug oxidation.

One may read the IC50 as the concentration needed to halve the response being measured.

Regarding `COc1ccc(NC(=O)[C@@H]2CCCN2S(=O)(=O)c2cc(C)cc3cn[nH]c23)cc1Cl` [Example 4, (S)—N-(3-chloro-4-methoxyphenyl)-1-((5-methyl-1H-indazol-7-yl)sulfonyl)pyrrolidine-2-carboxamide], the IC50 at Mtb Lpd was 390 nM. In addition, in series [1], the “Human Liver Microsome Stability” value is 324 µL/min/mg.
With `COc1ccc(NC(=O)CN(C)S(=O)(=O)c2cc(C)cc3cn[nH]c23)cc1Cl` [Example 1, N-(3-chloro-4-methoxyphenyl)-2-((N,5-dimethyl-1H-indazole)-7-sulfonamido)acetamide], the “Human Liver Microsome Stability” value in series [1] was greater than 768 µL/min/mg.
`Cc1cc(S(=O)(=O)N2CCC[C@H]2C(=O)Nc2ccc(N3CCOCC3)c(Cl)c2)c2[nH]ncc2c1` [Example 5]: on Mtb Lpd, the IC50 worked out at 42 nM. Besides, the “Human Liver Microsome Stability” value in series [1] was 133 µL/min/mg.
